Experiment [1] addresses T1, 1-phosphatidylinositol 4,5-bisphosphate phosphodiesterase gamma-1 (Homo sapiens, UniProt P19174).
T1 sequence (P19174 whole entry): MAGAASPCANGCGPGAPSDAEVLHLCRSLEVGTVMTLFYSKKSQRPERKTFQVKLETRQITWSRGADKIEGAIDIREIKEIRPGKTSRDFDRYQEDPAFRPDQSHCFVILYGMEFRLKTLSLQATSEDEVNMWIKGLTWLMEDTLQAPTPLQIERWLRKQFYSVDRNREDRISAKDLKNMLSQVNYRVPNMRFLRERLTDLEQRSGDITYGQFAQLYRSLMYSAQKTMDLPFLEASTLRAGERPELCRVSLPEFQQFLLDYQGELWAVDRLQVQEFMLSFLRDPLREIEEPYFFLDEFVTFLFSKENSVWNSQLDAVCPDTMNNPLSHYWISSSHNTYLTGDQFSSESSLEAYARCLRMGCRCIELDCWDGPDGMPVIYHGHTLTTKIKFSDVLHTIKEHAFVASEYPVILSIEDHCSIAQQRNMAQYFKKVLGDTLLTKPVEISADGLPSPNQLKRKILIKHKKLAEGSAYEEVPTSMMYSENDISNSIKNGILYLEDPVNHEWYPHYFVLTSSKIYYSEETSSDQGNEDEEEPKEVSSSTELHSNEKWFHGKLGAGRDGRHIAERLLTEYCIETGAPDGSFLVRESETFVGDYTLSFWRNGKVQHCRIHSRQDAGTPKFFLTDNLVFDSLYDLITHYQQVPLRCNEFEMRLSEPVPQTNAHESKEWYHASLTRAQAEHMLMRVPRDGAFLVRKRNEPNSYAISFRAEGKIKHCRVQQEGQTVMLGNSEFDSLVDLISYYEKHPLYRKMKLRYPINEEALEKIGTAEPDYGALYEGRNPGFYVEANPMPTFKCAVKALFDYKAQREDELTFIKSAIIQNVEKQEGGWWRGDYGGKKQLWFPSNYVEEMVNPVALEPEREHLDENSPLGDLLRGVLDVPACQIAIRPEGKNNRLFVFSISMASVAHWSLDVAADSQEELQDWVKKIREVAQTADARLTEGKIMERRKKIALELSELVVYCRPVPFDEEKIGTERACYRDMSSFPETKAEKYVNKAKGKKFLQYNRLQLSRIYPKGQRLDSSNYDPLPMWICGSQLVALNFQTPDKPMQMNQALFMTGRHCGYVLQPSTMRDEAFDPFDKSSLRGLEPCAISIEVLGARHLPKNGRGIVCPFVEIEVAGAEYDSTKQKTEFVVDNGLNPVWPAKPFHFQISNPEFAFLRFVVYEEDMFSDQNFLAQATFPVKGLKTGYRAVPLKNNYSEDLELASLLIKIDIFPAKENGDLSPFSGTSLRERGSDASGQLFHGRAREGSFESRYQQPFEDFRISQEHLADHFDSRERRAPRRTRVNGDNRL
Put plainly: Counterscreen for inhibitors of phospholipase C isozymes (PLC-B3): Fluorescence-based biochemical high throughput dose response assay to identify inhibitors of phospholipase C isozymes (PLC-gamma1). For orientation: A counterscreen serves to expose hits that act by an unwanted route or on another target.

Experiment [2] addresses T2, 1-phosphatidylinositol 4,5-bisphosphate phosphodiesterase beta-3 (Homo sapiens, UniProt Q01970).
T2 sequence (Q01970 whole entry): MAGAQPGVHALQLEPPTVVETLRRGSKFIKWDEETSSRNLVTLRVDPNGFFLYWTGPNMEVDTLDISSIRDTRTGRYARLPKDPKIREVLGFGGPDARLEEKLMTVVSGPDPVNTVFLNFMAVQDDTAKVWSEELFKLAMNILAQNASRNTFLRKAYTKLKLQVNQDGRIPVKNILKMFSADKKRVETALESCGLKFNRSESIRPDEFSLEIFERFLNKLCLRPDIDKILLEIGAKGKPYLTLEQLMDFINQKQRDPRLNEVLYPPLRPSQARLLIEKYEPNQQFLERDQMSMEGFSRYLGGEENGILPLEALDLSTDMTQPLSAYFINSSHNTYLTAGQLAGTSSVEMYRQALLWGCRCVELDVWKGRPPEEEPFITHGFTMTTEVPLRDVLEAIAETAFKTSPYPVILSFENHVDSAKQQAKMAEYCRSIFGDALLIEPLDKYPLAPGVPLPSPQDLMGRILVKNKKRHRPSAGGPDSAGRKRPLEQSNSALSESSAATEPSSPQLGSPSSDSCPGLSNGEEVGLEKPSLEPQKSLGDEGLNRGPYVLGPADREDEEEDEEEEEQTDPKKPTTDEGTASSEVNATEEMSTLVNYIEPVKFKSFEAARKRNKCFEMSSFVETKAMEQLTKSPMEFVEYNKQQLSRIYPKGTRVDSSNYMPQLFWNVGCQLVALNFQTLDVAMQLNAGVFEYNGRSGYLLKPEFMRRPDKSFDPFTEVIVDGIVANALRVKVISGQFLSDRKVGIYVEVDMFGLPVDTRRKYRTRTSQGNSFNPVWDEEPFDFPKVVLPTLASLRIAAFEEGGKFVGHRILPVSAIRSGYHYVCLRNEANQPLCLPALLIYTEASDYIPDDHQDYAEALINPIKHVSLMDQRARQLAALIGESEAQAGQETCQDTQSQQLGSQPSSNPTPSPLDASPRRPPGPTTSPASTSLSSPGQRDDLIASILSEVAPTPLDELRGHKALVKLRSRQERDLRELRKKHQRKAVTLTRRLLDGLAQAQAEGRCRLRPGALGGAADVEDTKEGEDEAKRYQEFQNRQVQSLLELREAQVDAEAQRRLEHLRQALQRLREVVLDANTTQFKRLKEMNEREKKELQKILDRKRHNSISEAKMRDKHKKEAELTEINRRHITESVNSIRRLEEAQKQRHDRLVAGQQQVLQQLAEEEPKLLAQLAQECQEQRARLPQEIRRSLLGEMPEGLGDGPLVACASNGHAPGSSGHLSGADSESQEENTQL
Put plainly: Fluorescence-based biochemical high throughput dose response assay to identify inhibitors of phospholipase C isozymes (PLC-B3).

In experiment [3] the target is T3, Histone-lysine N-methyltransferase NSD2 (Homo sapiens, UniProt O96028).
T3 sequence (O96028 whole entry): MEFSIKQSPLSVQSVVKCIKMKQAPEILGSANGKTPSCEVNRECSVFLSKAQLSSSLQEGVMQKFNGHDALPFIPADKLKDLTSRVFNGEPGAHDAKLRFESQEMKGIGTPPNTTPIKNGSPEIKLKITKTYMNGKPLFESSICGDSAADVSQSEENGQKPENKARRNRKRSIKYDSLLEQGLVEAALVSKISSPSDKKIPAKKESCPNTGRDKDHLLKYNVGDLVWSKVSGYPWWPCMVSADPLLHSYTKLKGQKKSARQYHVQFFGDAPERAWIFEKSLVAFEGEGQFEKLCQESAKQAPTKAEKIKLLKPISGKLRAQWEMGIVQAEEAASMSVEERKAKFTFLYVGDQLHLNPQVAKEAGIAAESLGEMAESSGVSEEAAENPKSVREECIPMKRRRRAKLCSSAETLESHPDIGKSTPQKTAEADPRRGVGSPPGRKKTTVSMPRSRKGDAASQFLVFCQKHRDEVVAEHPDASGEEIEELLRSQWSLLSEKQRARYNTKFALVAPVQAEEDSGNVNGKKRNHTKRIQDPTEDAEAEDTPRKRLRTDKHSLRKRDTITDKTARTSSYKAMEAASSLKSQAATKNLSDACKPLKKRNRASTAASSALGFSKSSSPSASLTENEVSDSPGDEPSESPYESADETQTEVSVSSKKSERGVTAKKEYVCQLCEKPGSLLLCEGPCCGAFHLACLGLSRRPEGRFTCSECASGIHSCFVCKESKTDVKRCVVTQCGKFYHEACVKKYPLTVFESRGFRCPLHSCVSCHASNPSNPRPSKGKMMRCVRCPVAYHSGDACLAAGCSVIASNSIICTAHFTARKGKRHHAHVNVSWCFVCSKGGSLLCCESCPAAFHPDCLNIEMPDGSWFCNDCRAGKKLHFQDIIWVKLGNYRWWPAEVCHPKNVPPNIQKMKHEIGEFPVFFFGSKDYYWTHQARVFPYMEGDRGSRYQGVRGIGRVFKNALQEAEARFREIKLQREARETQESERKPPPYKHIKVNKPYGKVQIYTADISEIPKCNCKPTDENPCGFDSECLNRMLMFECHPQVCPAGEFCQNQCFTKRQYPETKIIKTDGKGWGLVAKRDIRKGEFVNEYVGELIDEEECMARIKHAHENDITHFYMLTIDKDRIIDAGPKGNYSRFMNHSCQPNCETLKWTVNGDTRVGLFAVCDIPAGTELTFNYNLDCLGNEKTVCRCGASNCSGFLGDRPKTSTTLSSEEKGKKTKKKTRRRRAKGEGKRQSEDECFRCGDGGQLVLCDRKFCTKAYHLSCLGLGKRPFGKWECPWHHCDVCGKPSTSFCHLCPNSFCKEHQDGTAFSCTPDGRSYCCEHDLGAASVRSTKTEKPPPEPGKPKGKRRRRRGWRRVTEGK
The class given is biochemical.

In experiment [4] the target is T4, Caspase-6 (Homo sapiens, UniProt P55212).
T4 sequence (P55212 whole entry): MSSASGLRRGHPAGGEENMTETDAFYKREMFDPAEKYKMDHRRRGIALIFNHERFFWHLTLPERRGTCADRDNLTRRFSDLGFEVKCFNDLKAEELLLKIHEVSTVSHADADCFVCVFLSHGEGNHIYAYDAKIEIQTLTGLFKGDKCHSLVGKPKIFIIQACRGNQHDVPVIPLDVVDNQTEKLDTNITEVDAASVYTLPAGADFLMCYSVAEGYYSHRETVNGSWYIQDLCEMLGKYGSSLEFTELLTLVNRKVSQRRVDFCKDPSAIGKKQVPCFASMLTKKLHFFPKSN
Put plainly: inhibition of CASP6 peptide cleavage – biochemical, VEID-R110 fluorescence, cherry-pick, dose response (AID 720632).

The target in experiment [5] is T5, Tyrosyl-DNA phosphodiesterase 2 (Homo sapiens, UniProt O95551).
T5 sequence (O95551 whole entry): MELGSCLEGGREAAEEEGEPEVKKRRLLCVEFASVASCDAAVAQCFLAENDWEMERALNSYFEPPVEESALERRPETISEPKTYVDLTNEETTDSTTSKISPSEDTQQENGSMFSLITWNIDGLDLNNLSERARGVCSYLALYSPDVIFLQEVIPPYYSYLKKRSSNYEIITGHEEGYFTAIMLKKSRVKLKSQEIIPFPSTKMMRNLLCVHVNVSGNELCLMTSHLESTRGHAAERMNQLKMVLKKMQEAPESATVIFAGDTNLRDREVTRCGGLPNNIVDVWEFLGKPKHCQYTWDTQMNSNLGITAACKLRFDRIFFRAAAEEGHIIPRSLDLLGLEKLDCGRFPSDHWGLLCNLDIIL
Put plainly: potency against TDP2 phosphodiesterase activity – biochemical, epi absorbance, IC50, dose response (AID 743297).

Experiment [6] in a line: IGROV1 cell killing – plate reader, dry powder samples, PAX8 inhibitor project, dose response (AID 743043). The experiment is classed as functional, cell-based. The following applies: IGROV-1.
Experiment [7] can be described thus: A2780 cell killing – plate reader, dry powder samples, cytotoxicity control, dose response (AID 743046). The experiment is classed as functional, cell-based.
The nature of experiment [8]: OVCAR8 cell viability loss – plate reader, dry powder samples, PAX8 project, dose response (AID 743197). The conditions noted are these: OVCAR-8. The experiment is classed as functional, cell-based.
Experiment [9] addresses Paired box protein Pax-8 (Homo sapiens, UniProt Q06710). Put plainly: PAX8 transcriptional activity inhibition in RMG-I – RMG-I cells, luciferase, cherry-pick, dose response (AID 687027).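 Note: luciferase reporter driven by Pax8 target thyroperoxidase promoter measured by SteadyGlo luminescence.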 The class given is functional, cell-based.
The nature of experiment [10]: OVCAR-3 cell viability loss – plate reader, dry powder samples, PAX8 inhibitor project, dose response (AID 743044). The experiment is classed as functional, cell-based.

The structures appear in SMILES notation. The source made the active and inactive calls.

Chain of Paired box protein Pax-8 (Q06710 whole entry): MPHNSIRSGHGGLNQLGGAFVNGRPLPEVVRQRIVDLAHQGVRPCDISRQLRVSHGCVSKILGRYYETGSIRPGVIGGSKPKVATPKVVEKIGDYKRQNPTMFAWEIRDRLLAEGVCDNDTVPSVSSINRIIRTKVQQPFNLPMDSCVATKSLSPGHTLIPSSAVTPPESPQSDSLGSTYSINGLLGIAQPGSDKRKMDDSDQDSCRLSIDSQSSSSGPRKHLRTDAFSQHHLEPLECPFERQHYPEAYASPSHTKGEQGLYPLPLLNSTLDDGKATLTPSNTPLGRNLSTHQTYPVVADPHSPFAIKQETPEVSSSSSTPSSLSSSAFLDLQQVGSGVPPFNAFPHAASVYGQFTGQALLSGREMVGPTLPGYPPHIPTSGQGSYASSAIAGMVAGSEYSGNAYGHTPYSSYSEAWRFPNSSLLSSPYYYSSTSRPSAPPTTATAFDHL

`COc1ccccc1-c1cc(C(=O)Nc2ccc(F)cc2F)no1`: the IC50 in experiment [1] and in experiment [2] was > 122 µM (inactive) in each case.
On to `COc1cc(N)c2ncccc2c1Br`, for which the AC50 (in general, the midpoint of the concentration-response curve, whichever way the signal moves) in experiment [3] is 13.1 µM (active); in experiment [4] it was 10 µM (active). In addition, the IC50 (in general, the concentration that inhibits the measured activity by half) in experiment [5] is > 128 µM (inactive).
Regarding `C[C@@H]1CCCCO[C@H](CN(C)Cc2ccc(Cl)c(Cl)c2)[C@@H](C)CN([C@@H](C)CO)C(=O)c2cc(NC(=O)Nc3ccc(F)cc3)ccc2O1`, the AC50 in experiment [6] was 29.6 µM (active); in experiment [7] it was 63.6 µM (active); in experiment [8] it was > 70 µM (inactive); in experiment [9], 6.33 µM (active); in experiment [10], 51.3 µM (active).
With `O=C(CCc1ccccc1)N[C@H]1[C@@H](OC(=O)c2cnccn2)CCC[C@@]12C(=O)N(Cc1ccccc1)c1ccccc12`, the IC50 in [1] and in experiment [2] was > 122 µM (inactive) throughout.
Take `CO[C@H]1CN(C)C(=O)c2cc(NC(C)=O)ccc2OC[C@@H](C)N(C(=O)CC2CC2)C[C@H]1C`: in experiment [4], the AC50 is 12.1 µM (active).

Values taken from ChEMBL document CHEMBL1201862, “PubChem BioAssay data set” (2004).
